Measurements from US20260008775A1, “AZOLE MODULATORS OF CHOLESTEROL BIOSYNTHESIS AND THEIR USE FOR PROMOTING REMYELINATION” (GENENTECH, INC., priority 2022, published 2026).

Legend:
[1] = test system: zymostenol accumulation (EBP) in EpiSC-derived OPCs; experiment: GC/MS-based sterol profiling, zymostenol accumulation in EpiSC-derived OPCs; type: cell-based, mouse; conditions: Mus musculus, 24 h, EpiSC-derived OPCs, 24 hr, 8 doses from 0.15 nM to 333 nM; read-out: Mouse Zymostenol GCMS EC50
Procedure: To assess effects of treatments on OPCs, all treatments were assayed in two or more independent platings of epiblast stem cell-derived OPCs (EpiSC). EpiSC-derived OPCs were obtained using in vitro differentiation protocols and culture conditions described previously (Najm et al, 2011, Nature Methods). OPCs were expanded and frozen down in aliquots. OPCs were thawed into growth conditions for at least one passage before use in further assays.
Sterols were monitored using a modified Folch wash protocol (Hubler et al, 2018, Nature). EpiSC-derived OPCs were plated at 100,000 cells per well in PO- and laminin-coated 96-well plates in N2B27 media without growth factors. After 24 hours, cells were rinsed with saline and plates were frozen. Cholesterol-d7 standard was then added to each well before drying under nitrogen stream and derivatization with 55 μl of bis(trimethylsilyl) trifluoroacetamide. After derivatization, 2 μl were analyzed by gas chromatography/mass spectrometry using an Agilent 5973 Network Mass Selective Detector equipped with a 6890 gas chromatograph system and a HP-5MS capillary column (30 m×0.25 mm×[…]). Samples were analyzed in full scan mode using electron impact ionization; ion fragment peaks were integrated to calculate sterol abundance, and quantitation was relative to cholesterol-d7. The following ion fragments were used to quantitate each metabolite: cholesterol-d7 (465), FF-Mas (482), cholesterol (368), zymostenol (458), zymosterol (456), Desmosterol (456, 343), 7-dehydrocholesterol (456, 325), lanosterol (393), lathosterol (458), 14-dehydrozymostenol (456, 351). […] All standards were obtained from Avanti Polar Lipids unless otherwise indicated. Calibration curves were generated by injecting varying concentrations of sterol standards and maintaining a fixed amount of cholesterol-D7. For normalized zymostenol accumulation results, the total amount of zymostenol measured after drug treatment was divided by the total amount of zymostenol accumulated after 24 hr treatment with 100 nM positive control reference.

[2] = target: human emopamil binding protein and human 7-dehydrocholesterol reductase (hEBP-DHCR7) (Homo sapiens (Human), UniProt Q15125); experiment: hEBP-DHCR7 radioligand binding assay (filter binding, membranes of co-expressing HEK293 cells); conditions: competition with [3H] radioligand, 8 doses 0.06 to 5000 nM, Ki calculated from IC50
Chain of human emopamil binding protein and human 7-dehydrocholesterol reductase (hEBP-DHCR7) (Q15125 whole entry): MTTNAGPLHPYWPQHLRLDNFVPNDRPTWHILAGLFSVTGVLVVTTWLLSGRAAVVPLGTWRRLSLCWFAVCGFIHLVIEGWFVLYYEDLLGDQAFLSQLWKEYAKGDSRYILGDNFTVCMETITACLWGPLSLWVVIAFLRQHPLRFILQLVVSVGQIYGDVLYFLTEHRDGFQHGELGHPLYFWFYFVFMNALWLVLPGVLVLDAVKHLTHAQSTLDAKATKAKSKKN
Procedure: Membrane Preparation: human emopamil binding protein and human 7-dehydrocholesterol reductase co-expressing cells were generated by transient transfecting host human embryonic kidney (HEK) 293 cells with 2 DNA constructs containing each protein's coding sequence. Cells were suspension cultured at 37° C. with 5% CO2 in […] 293 Expression Medium (Thermofisher). Whole cell membrane was prepared by harvesting the cell pellet, adding cold membrane buffer (50 mM Tris, pH7.5, 1× Roche COMPLETE EDTA-free protease inhibitor cocktail) 10 times volume of the cell pellets weight, lysing cell pellet on ice by using Dounce homogenizer, spinning at 200 g 4° C. for 15 min, collecting supernatant and spinning again at 25000 g 4° C. for 50 min, transferring pellet to Dounce homogenizer, re-suspending pellet by homogenizing in membrane buffer on ice to reach ˜25 mg/mL, then keeping whole cell membrane aliquots at −80° C.
Compounds were prepared in a 96-well U bottom plate (Corning Cat #7007) using an Echo550 machine and 10 mM compound DMSO stock solution, followed by an 8-dose 5-fold serial dilutions protocol with final testing compound concentration ranging from 0.06 to 5000 nM, with DMSO back fill to 100 nL/well and n=2. […] The UniFilter-96 GF/B plates (PerkinElmer Cat #6005177) were pre-treated by adding 50 μl/well of 0.3% (v/v) Polyethylenimine (PEI) (branched, Sigma Cat #408727) to UniFilter-96 GF/B plates. The plates were sealed and incubated at 4° C. for 3 hrs. Then, the plates were washed with ice-cold assay buffer 3 times. The radioligand binding assay was prepared by adding assay buffer diluted hEBP-DHCR7 membrane at 66.7 µg/ml×150 μl/well into the 96-well compound plate to reach 10 μg membrane per well. Then, the assay buffer diluted [3H]—(S)-6-(2-Methyl-3-(6-(trifluoromethyl)pyridin-3-yl)propyl)-2-thia-6-azaspiro[3.4]octane 2,2-dioxide (Moravek, Cat #MT-1003106) was added at 25 nM×50 μl/well. Following this, the plate was centrifuged at 1000 rpm for 30 secs. The plate was then sealed and agitated at 600 rpm at 22° C. for 5 min, and then incubated at 22° C. for 3 hrs. The incubation was stopped by transferring the binding solution to the pre-treated UniFilter-96 GF/B plate, vacuum filtrated, and then washed four times with ice-cold assay buffer. Following this, the plates were dried at 37° C. for 45 min. The plates were then sealed at the bottom. 40 µl/well of scintillation cocktail was added to the plates. A MicroBeta2 microplate counter was then used to read the plate and analyze the data. For reference and test compounds, the results are expressed as % Inhibition, using the normalization equation: N=100−100×(U−C2)/(C1−C2), where U is the unknown value, C1 is the average of high controls, and C2 is the average value of low controls.

| EC50 [1] [µM] | Ki [2] [µM] | Structure (SMILES) |
| --- | --- | --- |
| 0.141 | – | CC(C)n1nc(-c2cc(C(F)(F)F)ccn2)nc1[C@@H]1CC[C@@H](N2CCOCC2)C1 (single isomer, unassigned) [27*] |
| 0.243 | 0.065 | CC(C)n1nc(-c2cncc(C(F)(F)F)c2)cc1[C@H]1[C@@H]2CC(N3CCOC[C@@H]3C)C[C@@H]21 (single isomer, unassigned) [43*] |
| 0.062 | 0.065 | CC(C)n1nc(-c2cncc(C(F)(F)F)c2)cc1[C@H]1[C@@H]2CC(N3CCOC[C@H]3C)C[C@@H]21 (single isomer, unassigned) [44*] |
| 0.0192 | 0.0734 | CC(C)n1nc(-c2cncc(C(F)(F)F)c2)cc1[C@@H]1CC[C@@H](N2CCOCC2)C1 (single isomer, unassigned) [59*] |
| 0.00275 | 0.0156 | CC(C)n1nc(-c2cncc(C(F)(F)F)c2)cc1[C@H]1CC[C@@H](N2CCCOCC2)C1 (single isomer, unassigned) [64*] |
| > 0.333 | – | CC(C)n1nc(-c2cccc(C(F)(F)F)n2)nc1[C@H]1CC[C@H](N2CCOC[C@@H]2C)CC1 (single isomer, unassigned) [78*] |
| 0.0231 | – | CC(C)n1nc(-c2cccc(C(F)(F)F)n2)nc1[C@H]1CC[C@@H](N2CCOC[C@@H]2C)CC1 (single isomer, unassigned) [79*] |
| 0.112 | 0.528 | CC(C)n1nc(-c2cccc(C(F)(F)F)n2)nc1[C@H]1CC[C@H](N2CCOC[C@H]2C)CC1 (single isomer, unassigned) [80*] |
| 0.0273 | – | CC(C)n1nc(-c2cccc(C(F)(F)F)n2)nc1[C@H]1CC[C@@H](N2CCOC[C@H]2C)CC1 (single isomer, unassigned) [81*] |
| 0.0287 | 0.0312 | CC(C)n1nc(-c2ccc(C(F)(F)F)nc2)cc1[C@@H]1CC[C@@H](N2CCN(CCO)CC2)C1 (single isomer, unassigned) [86*] |
| 0.627 | 0.0882 | CC(C)n1nc(-c2ccc(C(F)(F)F)nc2)cc1[C@H]1CC[C@H](N2CCN(CCO)CC2)C1 (single isomer, unassigned) [88*] |
| 0.0219 | 0.0424 | CC(C)n1nc(-c2ccc(C(F)(F)F)nc2)cc1[C@H]1CC[C@@H](N2CCN(CCO)CC2)C1 (single isomer, unassigned) [89*] |
| 0.0337 | 0.011 | COCCN1CCN([C@@H]2CC[C@@H](c3cc(-c4ccc(C(F)(F)F)nc4)nn3C(C)C)C2)CC1 (single isomer, unassigned) [90*] |
| 0.252 | 0.0776 | COCCN1CCN([C@H]2CC[C@H](c3cc(-c4ccc(C(F)(F)F)nc4)nn3C(C)C)C2)CC1 (single isomer, unassigned) [92*] |
| 0.0972 | 0.035 | CC(C)n1nc(-c2cncc(C(F)(F)F)c2)nc1[C@@H]1CC[C@@H](N2CCOCC2)C1 (single isomer, unassigned) [Compound 115*] |
| 0.049 | 0.169 | CC(C)n1nc(-c2cncc(C(F)(F)F)c2)nc1[C@H]1CC[C@H](N2CCOCC2)C1 (single isomer, unassigned) [Compound 116*] |
| 0.0135 | 0.0346 | CC(C)n1nc(-c2cncc(C(F)(F)F)c2)nc1[C@@H]1CC[C@H](N2CCOCC2)C1 (single isomer, unassigned) [Compound 117*] |
| 0.619 | 0.392 | CC(C)n1nc(-c2cnc(C(F)(F)F)nc2)cc1[C@H]1CC[C@H](N2CCO[C@@H](CF)C2)C1 (single isomer, unassigned) [Compound 130*] |
| 0.168 | 0.106 | CC(C)n1nc(-c2cnc(C(F)(F)F)nc2)cc1[C@H]1CC[C@@H](N2CCO[C@@H](CF)C2)C1 (single isomer, unassigned) [Compound 131*] |
| 0.352 | 0.088 | CC(C)n1nc(-c2cnc(C(F)(F)F)nc2)cc1[C@H]1CC[C@H](N2CCO[C@H](CF)C2)C1 (single isomer, unassigned) [Compound 132*] |
| 0.0592 | 0.051 | CC(C)n1nc(-c2cnc(F)c(C(F)(F)F)c2)nc1[C@@H]1CC[C@H](N2CCOCC2)C1 (single isomer, unassigned) [Compound 157*] |
| 0.00538 | 0.0338 | CC(C)n1nc(-c2cnc(F)c(C(F)(F)F)c2)nc1[C@H]1CC[C@@H](N2CCOCC2)C1 (single isomer, unassigned) [Compound 158*] |
| 0.00425 | 0.0122 | CC(C)n1nc(-c2cnc(F)c(C(F)(F)F)c2)nc1[C@H]1CC[C@H](N2CCOCC2)C1 (single isomer, unassigned) [Compound 159*] |
| 0.143 | 1.64 | CC(C)n1nc([C@H]2CC[C@H](C(F)(F)F)CC2)nc1[C@H]1[C@@H]2C[C@H](N3CCOC[C@H]3C)C[C@@H]21 (single isomer, unassigned) [Compound 164*] |
| 0.229 | 0.388 | CC(C)n1nc(-c2ccc(C(F)(F)F)nc2)nc1[C@H]1CC[C@H](N2CCO[C@H](CF)C2)C1 (single isomer, unassigned) [Compound 168] |
| 0.0395 | 0.0324 | CC(C)n1nc(-c2ccc(C(F)(F)F)nc2)nc1[C@@H]1CC[C@@H](N2CCCOCC2)C1 [Compound 3, 4-((1R,3R)-3-(1-isopropyl-3-(6-(trifluoromethyl)pyridin-3-yl)-1H-1,2,4-triazol-5-yl)cyclopentyl)-1,4-oxazepane] |
| 0.168 | 0.037 | CC(C)n1nc(-c2cccc(OC(F)F)c2)nc1[C@H]1[C@@H]2C[C@@H](N3CCCOCC3)C[C@@H]21 [Compound 74, 4-((1R,3s,5S,6r)-6-(3-(3-(Difluoromethoxy)phenyl)-1-isopropyl-1H-1,2,4-triazol-5-yl)bicyclo[3.1.0]hexan-3-yl)-1,4-oxazepane] |
| 0.00283 | 0.012 | CC(C)n1nc(-c2cccc(OC(F)F)c2)nc1[C@H]1[C@@H]2C[C@H](N3CCCOCC3)C[C@@H]21 [Compound 75, 4-((1R,3r,5S,6r)-6-(3-(3-(Difluoromethoxy)phenyl)-1-isopropyl-1H-1,2,4-triazol-5-yl)bicyclo[3.1.0]hexan-3-yl)-1,4-oxazepane] |
| 0.191 | 0.129 | CC(C)n1nc(-c2cccc(OC(F)F)c2)nc1[C@H]1[C@@H]2C[C@@H](N3CCOC[C@H]3C)C[C@@H]21 [Compound 77, (R)-4-((1R,3s,5S,6R)-6-(3-(3-(Difluoromethoxy)phenyl)-1-isopropyl-1H-1,2,4-triazol-5-yl)bicyclo[3.1.0]hexan-3-yl)-3-methylmorpholine] |
| 0.28 | 0.087 | COCCN1CCN([C@@H]2CC[C@@H](c3nc(-c4ccc(C(F)(F)F)nc4)nn3C(C)C)C2)CC1 [Compound 82, 1-((1R,3R)-3-(1-Isopropyl-3-(6-(trifluoromethyl)pyridin-3-yl)-1H-1,2,4-triazol-5-yl)cyclopentyl)-4-(2-methoxyethyl)piperazine] |
